Laboratory results reported in PubChem BioAssay (NCI).
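Values below derive from 48-hour exposures of cells grown in 96-well plates, with endpoints linearly interpolated between the two concentrations bracketing the appropriate inhibition level. GI50: concentration for 50% inhibition of growth. TGI: total growth inhibition.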

Key:
Assay in all cases: NCI tumour cell line growth inhibition, 48 h
786-0 renal = system: 786-0 renal
A498 renal = system: A498 renal
A549 NSCLC = system: A549 NSCLC
ACHN renal = system: ACHN renal
BT-549 breast = system: BT-549 breast
CAKI-1 renal = system: CAKI-1 renal
COLO 205 colon = system: COLO 205 colon
DU-145 prostate = system: DU-145 prostate
EKVX NSCLC = system: EKVX NSCLC
HCC-2998 colon = system: HCC-2998 colon
HCT-116 colon = system: HCT-116 colon
HCT-15 colon = system: HCT-15 colon
HL-60(TB) leukemia = system: HL-60(TB) leukemia
HOP-62 NSCLC = system: HOP-62 NSCLC
HOP-92 NSCLC = system: HOP-92 NSCLC
HS 578T breast = system: HS 578T breast
HT29 colon = system: HT29 colon
IGROV1 ovarian = system: IGROV1 ovarian
K-562 leukemia = system: K-562 leukemia
KM12 colon = system: KM12 colon
LOX IMVI melanoma = system: LOX IMVI melanoma
M14 melanoma = system: M14 melanoma
MALME-3M melanoma = system: MALME-3M melanoma
MCF7 breast = system: MCF7 breast
MDA-MB-231 breast = system: MDA-MB-231 breast
MDA-MB-435 = system: MDA-MB-435
MOLT-4 leukemia = system: MOLT-4 leukemia
NCI-H226 lung = system: NCI-H226 lung

With `Cc1nc(-c2cc3ccccc3oc2=O)ccc1C(=O)/C=C/c1ccccn1` the GI50 (786-0 renal) was > 100 µM, the TGI (786-0 renal) was > 100 µM and the GI50 (A498 renal) was > 100 µM. The TGI (A498 renal) was > 100 µM, the GI50 (A549 NSCLC) was > 100 µM and the TGI (A549 NSCLC) was > 100 µM. The GI50 (ACHN renal) was > 100 µM, the TGI (ACHN renal) was > 100 µM and the GI50 (BT-549 breast) was > 100 µM. The TGI (BT-549 breast) was > 100 µM, the GI50 (CAKI-1 renal) was > 100 µM and the TGI (CAKI-1 renal) was > 100 µM. The GI50 (COLO 205 colon) was > 100 µM, the TGI (COLO 205 colon) was > 100 µM and the GI50 (DU-145 prostate) was > 100 µM. The TGI (DU-145 prostate) was > 100 µM, the GI50 (EKVX NSCLC) was > 100 µM and the TGI (EKVX NSCLC) was > 100 µM. For the same compound, the GI50 (HCC-2998 colon) was > 100 µM, the TGI (HCC-2998 colon) was > 100 µM and the GI50 (HCT-116 colon) was 6.34 µM. For the same compound, the TGI (HCT-116 colon) was > 100 µM, the GI50 (HCT-15 colon) was > 100 µM and the TGI (HCT-15 colon) was > 100 µM. The GI50 (HL-60(TB) leukemia) was > 100 µM, the TGI (HL-60(TB) leukemia) was > 100 µM and the GI50 (HOP-62 NSCLC) was > 100 µM. The TGI (HOP-62 NSCLC) was > 100 µM, the GI50 (HOP-92 NSCLC) was 7.25 µM and the TGI (HOP-92 NSCLC) was > 100 µM. For the same compound, the GI50 (HS 578T breast) was > 100 µM, the TGI (HS 578T breast) was > 100 µM and the GI50 (HT29 colon) was > 100 µM. For the same compound, the TGI (HT29 colon) was > 100 µM, the GI50 (IGROV1 ovarian) was > 100 µM and the TGI (IGROV1 ovarian) was > 100 µM. For the same compound, the GI50 (K-562 leukemia) was 6.47 µM, the TGI (K-562 leukemia) was > 100 µM and the GI50 (KM12 colon) was > 100 µM. The TGI (KM12 colon) was > 100 µM, the GI50 (LOX IMVI melanoma) was 3.2 µM and the TGI (LOX IMVI melanoma) was > 100 µM. For the same compound, the GI50 (M14 melanoma) was > 100 µM, the TGI (M14 melanoma) was > 100 µM and the GI50 (MALME-3M melanoma) was > 100 µM. For the same compound, the TGI (MALME-3M melanoma) was > 100 µM, the GI50 (MCF7 breast) was 3.72 µM and the TGI (MCF7 breast) was > 100 µM. The GI50 (MDA-MB-231 breast) was > 100 µM, the TGI (MDA-MB-231 breast) was > 100 µM and the GI50 (MDA-MB-435) was > 100 µM. For the same compound, the TGI (MDA-MB-435) was > 100 µM, the GI50 (MOLT-4 leukemia) was > 100 µM and the TGI (MOLT-4 leukemia) was > 100 µM. The GI50 (NCI-H226 lung) was > 100 µM and the TGI (NCI-H226 lung) was > 100 µM.
